In patent publication WO2020169698A1, “Sensitization of cancer cells to tnf by bet inhibition” (dated 2020):

Legend:
HCT116-EBV cells = assay: Epigenetic small molecule screen, negative control coculture with CMV-specific T cells, 48 h; settings: Ag- (EBV peptide) coculture, 2.5uM or 5uM
HCT116-NLV cells = assay: Epigenetic small molecule screen, coculture with CMV-specific T cells, 48 h; assay type: cell-based, human; settings: Ag+ coculture, 2.5uM or 5uM
Caspase 3,7 = Caspase 3,7 Glo activity, 8 h; assay type: cell-based; settings: for Caspase 3,7 activity: RG6146 + 15ng/mL TNF vs RG6146 single agent, 8h
Caspase 8 = Caspase 8 Glo activity, 8 h; assay type: cell-based; settings: for Caspase 8 activity: RG6146 + 15ng/mL TNF vs RG6146 single agent, 8h
MKN45 cells [1] = assay: CellTiterGlo viability with BET inhibitor + TNF, 72 h; assay type: cell-based; settings: in combination with 15ng/ml TNF vs BET inhibitor single agent, significance for the highest concentration of compound
MC38 cells [2] = assay: Viability of p-gp 1 expressing MC38 cells with BET inhibitor + TNF +/- Zosuquidar, 72 h; assay type: cell-based, murine; settings: for change in sensitivity by p-gp 1 block with Zosuquidar: 0.5mM (so in the source) Zosuquidar, TNF 15ng/mL, 72 hours, some concentrations tested
[3] = tested on: MC38-huCEA expressing sc tumors; assay: In vivo antitumor efficacy against MC38-huCEA sc tumors; parameters: species or system mice; settings: single agent; JQ1 50mg/kg ip once daily (14x) or CEA-TCB 2.5mg/kg iv twice weekly (4x); last day of study
HCT116 cells [4] = assay: CellTiterGlo viability with BET inhibitor + TNF, 72 h; assay type: cell-based; settings: in combination with 15ng/ml TNF vs BET inhibitor single agent, significance for the highest concentration of compound
HCT116-GFP cells = assay: CEA-TCB bystander effect on CEA negative cell growth, Incucyte S3; assay type: cell-based; settings: RG6146 combined with CEA-TCB (20nM) vs RG6146 single agent, one week
MC38-Ova cells = assay: OT1 T cell co-culture cytotoxicity (PI positivity), 18 h; assay type: cell-based, murine; parameters: dose or concentration left out as unconfirmed; settings: RG6146 with OT1 T cells
MKN45 cells [5] = assay: Viability with CEA-TCB/PBMC conditioned media + RG6146, 72 h; assay type: cell-based
HCT116 cells [6] = assay: Growth with Caspase 8 knock down, Incucyte S3; assay type: cell-based; settings: 2.5mM (so in the source) RG6146 + 15ng/ml TNF, 7 days
MC38 cells [7] = assay: Synergy of RG6146 and recombinant TNF (PI positivity, ZIP model); assay type: cell-based, murine; settings: RG6146 + recombinant TNF, 18 hours
AU565 cells = assay: as above; assay type: cell-based, human; settings: RG6146 + recombinant TNF, 18 hours
HCT116 cells [8] = assay: CEA-TCB 2 bystander killing of CEA negative cells, flow cytometry, 72 h; assay type: cell-based; settings: RG6146 15uM to 0.002uM with CEA-TCB 2 activated CTLs
MKN45 cells [9] = assay: Cleaved PARP Western blot with CEA-TCB 2 conditioned media + RG6146; assay type: cell-based; settings: RG6146 (2.5 and 7 mM as printed) + CEA-TCB 2 conditioned media; not seen in absence of CEA-TCB 2
[10] = tested on: MLL-AF9-driven acute myeloid leukemia cells; assay: OT1 T cell cytotoxicity towards MLL-AF9 AML cells (PI positivity), 16 h; assay type: cell-based, murine; settings: 2.5uM RG6146, 16 hours
MKN45 cells [11] = assay: Cleaved PARP Western blot with CEA-TCB conditioned media + RG6146; assay type: cell-based; settings: RG6146 (1 and 2.5 mM as printed) + CEA-TCB conditioned media, 24h; not seen in absence of CEA-TCB
HCT116 cells [12] = assay: Cleaved PARP Western blot with CEA-TCB 2 conditioned media + RG6146; assay type: cell-based; settings: RG6146 (2.5 and 7 mM as printed) + CEA-TCB 2 conditioned media; not seen in absence of CEA-TCB 2
HCT116 cells [13] = assay: CEA-TCB bystander killing of CEA negative cells, flow cytometry, 72 h; assay type: cell-based; settings: RG6146 15uM to 0.002uM with CEA-TCB activated T cells
MC38 cells [14] = assay: Cell death of MC38 cells overexpressing Bcl-2 or cFLIP (PI positivity), 18 h; assay type: cell-based, murine; parameters: dose or concentration left out as unconfirmed; settings: cFLIP overexpression, RG6146 (so in the source) and TNF
HCT116 cells [15] = assay: Viability with CEA-TCB/PBMC conditioned media + RG6146, 72 h; assay type: cell-based; settings: 20nM CEA-TCB conditioned media + RG6146 30uM to 0.0005uM
HCT116 cells [16] = settings: CEA-TCB; "as has been shown for HCT116 cells that express no CEA"; cited from earlier work
[17] = tested on: CEA on tumor cells and CD3e on T cells; settings: mouse models; cited from earlier work
[18] = HCT116 and MKN45 cells, inhibitor with RG6146 + TNF (significance not shown)

Cc1[nH]c2ccccc2c1CCNCc1ccc(/C=C/C(=O)NO)cc1 [Panobinostat]
viability in negative control coculture (toxicity) (HCT116-EBV cells): decreased viability also in the negative control

CCNC(=O)c1cc2c(-c3cc(C(C)(C)O)ccc3Oc3c(C)cc(F)cc3C)cn(C)c(=O)c2[nH]1 [ABBV744]
viability (HCT116-NLV cells): significantly decrease viability

Z-IETD-FMK: Caspase 8 inhibitor Z-IETD-FMK (R&D Systems #FMK007) (not fully specified)
block of downstream Caspase 3,7 activation (Caspase 3,7; [18]): blocked Caspase 8 and downstream Caspase 3,7 activation completely | block of Caspase 8 activation (Caspase 8; [18]): blocked Caspase 8 and downstream Caspase 3,7 activation completely

O=C(CCCCCCC(=O)Nc1ccccc1)NO [Vorinostat]
viability in negative control coculture (toxicity) (HCT116-EBV cells): decreased viability also in the negative control

Cc1sc2c(c1C)C(c1ccc(Cl)cc1)=N[C@@H](CC(=O)OC(C)(C)C)c1nnc(C)n1-2 [JQ1]
viability (MKN45 cells [1]): significantly decrease viability | change in sensitivity by p-gp 1 block with Zosuquidar (MC38 cells [2]): no change | decreased tumor growth [3]: 50% | viability (HCT116 cells [4]): significantly decrease viability | viability (HCT116-NLV cells): significantly decrease viability

COc1cc2c(cc1-c1c(C)noc1C)ncc1[nH]c(=O)n([C@H](C)c3ccccn3)c12 [ΪBET151]
viability (MKN45 cells [1]): significantly decrease viability | viability (HCT116 cells [4]): significantly decrease viability | viability (HCT116-NLV cells): significantly decrease viability

Nc1ccccc1NC(=O)c1ccc(CNC(=O)OCc2cccnc2)cc1 [Entinostat]
viability in negative control coculture (toxicity) (HCT116-EBV cells): decreased viability also in the negative control

Cc1sc2c(c1C)C(c1ccc(Cl)cc1)=N[C@@H](CC(=O)NCCCN1CCN(C)CC1)c1nnc(C)n1-2 [RG6146, 2-[(S)-4-(4-chloro-phenyl)-2,3,9-trimethyl-6H-l-thia-5,7,8,9a-tetraaza-cyclopenta[e]azulen-6-yl]-N-[3-(4-methyl-piperazin-l-yl)-propyl]-acetamide]
cell growth of CEA negative cells (HCT116-GFP cells): significantly decrease cell growth | Caspase 3,7 activity (Caspase 3,7; HCT116 cells): induces Caspase3,7 and 8 activity in HCT-116 and MKN45 cells significantly | Caspase 3,7 activity (Caspase 3,7; MKN45 cells): induces Caspase3,7 and 8 activity in HCT-116 and MKN45 cells significantly | viability (MKN45 cells [1]): significantly decrease viability | cell death (PI positivity) (MC38-Ova cells): increased cell death | viability (MKN45 cells [5]; RG6146 with CEA-TCB supernatant): decrease in viability | change in sensitivity by p-gp 1 block with Zosuquidar (MC38 cells [2]): sensitized | sensitivity of p-gp 1 expressing MC38 cells (MC38 cells [2]; compared to JQ1): less sensitive | cell growth rescue (HCT116 cells [6]; Caspase 8 knockdown): rescued cell growth under these treatment conditions partially | cell growth (HCT116 cells [6]; scr treated cells): completely blocked HCT116 cell growth | Caspase 8 activity (Caspase 8; HCT116 cells): induces Caspase3,7 and 8 activity in HCT-116 and MKN45 cells significantly | Caspase 8 activity (Caspase 8; MKN45 cells): induces Caspase3,7 and 8 activity in HCT-116 and MKN45 cells significantly | induction of cell death, synergy with TNF (MC38 cells [7]): synergstic | induction of cell death, synergy with TNF (AU565 cells): synergstic | cell killing in CEA negative cells (HCT116 cells [8]): able to increase cell killing | cell death (cleaved PARP) (MKN45 cells [9]): able to induce cell death | cytotoxic activity of OT1 T cells ([10]; perforin expressing (wild-type) OT1 T cells): augments the cytotoxic activity | cytotoxic activity of OT1 T cells ([10]; perforin-deficient OT1 T cells): augments the cytotoxic activity | cell death (cleaved PARP) (MKN45 cells [11]): able to induce cell death | viability (HCT116 cells [4]): significantly decrease viability | cell death (cleaved PARP) (HCT116 cells [12]): able to induce cell death | cell killing in CEA negative cells (HCT116 cells [13]): able to increase cell killing | viability (HCT116-NLV cells): significantly decrease viability | cytotoxic effects of TNF+RG6146 (MC38 cells [14]): abrogate the cytotoxic effects

CCS(=O)(=O)Nc1ccc(Oc2ccc(F)cc2F)c(-c2cn(C)c(=O)c3[nH]ccc23)c1 [Mivebresib]
viability (HCT116-NLV cells): significantly decrease viability

Cc1sc2c(c1C)C(c1ccc(Cl)cc1)=N[C@@H](CC(=O)Nc1ccc(O)cc1)c1nnc(C)n1-2 [OTX015]
viability (MKN45 cells [1]): significantly decrease viability | viability (HCT116 cells [4]): significantly decrease viability | viability (HCT116-NLV cells): significantly decrease viability

B1: CEA-TCB: T cell activating bispecific antibody targeting CEA on tumor cells and CD3e on T cells (antibody, chains of the INN, looked up, V domains shown)
VH: QVQLVQSGAEVKKPGASVKVSCKASGYTFTEFGMNWVRQAPGQGLEWMGWINTKTGEATYVEEFKGRVTFTTDTSTSTAYMELRSLRSDDTAVYYCARWDFAYYVEAMDYWGQGTTVTVSS
VL: DIQMTQSPSSLSASVGDRVTITCKASAAVGTYVAWYQQKPGKAPKLLIYSASYRKRGVPSRFSGSGSGTDFTLTISSLQPEDFATYYCHQYYTYPLFTFGQGTKLEIK
VH2: QVQLVQSGAEVKKPGASVKVSCKASGYTFTEFGMNWVRQAPGQGLEWMGWINTKTGEATYVEEFKGRVTFTTDTSTSTAYMELRSLRSDDTAVYYCARWDFAYYVEAMDYWGQGTTVTVSS
VL2: QAVVTQEPSLTVSPGGTVTLTCGSSTGAVTTSNYANWVQEKPGQAFRGLIGGTNKRAPGTPARFSGSLLGGKAALTLSGAQPEDEAEYYCALWYSNLWVFGGGTKLTVL
combination of cytokines released by CEA-TCB activated T cells with BET inhibition (MKN45 cells [5]; 20nM CEA-TCB conditioned media + RG6146 30uM to 0.0005uM): synergistically combine with BET inhibition | combination of cytokines released by CEA-TCB activated T cells with BET inhibition (HCT116 cells [15]): synergistically combine with BET inhibition | CTL killing of cells with low or no CEA (HCT116 cells [16]): not able to induce CTL killing | decreased tumor growth [3]: 60% | PD-L1/PD-1 pathway [17]: up-regulates | anti-tumor activity [17]: potent anti-tumor activity | intratumoral T cell infiltration [17]: increased intratumoral T cell infiltration | release of pro-inflammatory cytokines such as IFNy, TNF and Granzyme B [17]: increased release of pro-inflammatory cytokines
